# Results reported in publication PMC10545747, “Development of cyclopeptide inhibitors of cGAS targeting protein-DNA interaction and phase separation” (Nature Communications, 2023).
# “And” between values parts separate entries of the source, which are not always exact repeats. Identical values can stand only once. Square brackets hold non-standard residues; d marks the D form. Peptide text beside a SMILES is read from it.
# Experiments:
# L929 cells = assay: ISD-induced autophagy, LC3-II immunoblotting; format: cell-based, mouse; conditions: ISD +, XQ2 10 μM
# Method: Total cell lysates were prepared in RIPA lysis buffer (Beyotime Biotechnology) supplemented with 1 mM PMSF and 1× protease inhibitor cocktail (Yeasen), and nuclear protein was extracted by nuclear protein extraction kit (Solarbio) in accordance with the manufacturer’s instructions. The samples were separated by SDS-PAGE and transferred to the PVDF membrane (Millipore). The membranes were incubated with the indicated primary antibodies at 4 °C overnight and then incubated with an HRP-conjugated anti-rabbit IgG antibody (Cell Signaling, Cat# 7074, 1:5000) or anti-mouse IgG antibody (Cell Signaling, Cat# 7076, 1:5000) at room temperature for 1 h. The signal was visualized by using the NcmECL Ultra kit (New Cell & Molecular Biotech) and then was exposed by using MiniChemi (SageCreation).
# Supplementary Fig. 3. […] (a) L929 cells were pretreated for
# 4 h with DMSO or the indicated doses of XQ2, followed by stimulation with dsDNA for 4 h, and then cell lysates were
# (b) Jurkat cells were exposed to the indicated doses of XQ2, and then stimulated with
# Data are representative of three independent experiments in (a, b). (Data are presented as mean ± SD, n = 3 independent
# provided as a Source Data file.
# (1 picture or pasted object on this page, not shown here)
# [1] = system: HSV-1-infected THP1 cells; assay: qPCR of IFNB1/CXCL10/IL6 mRNA in THP1 cells stimulated by HSV-1 infection; format: cell-based, human
compound,measurement,setting,value
"CC(C)C[C@@H]1NC(=O)[C@H](CCCNC(=N)N)NC(=O)[C@H](C(C)C)NC(=O)[C@@H]2CCCN2C(=O)[C@@H](Cc2ccccc2)NC(=O)[C@H](CC(C)C)NC(=O)[C@H](CCCNC(=N)N)NC(=O)[C@H](C(C)C)NC(=O)[C@H](C)NC(=O)[C@@H](Cc2ccccc2)NC1=O [XQ2, Cyclo (LfAVRLfPVR)] (cyclo(L[dF]AVRL[dF]PVR))","LC3-II relative gray ratio (normalized to GAPDH), Fig. S3a",L929 cells,1.275 and 1.336 and 1.295
same,CXCL10 mRNA (Fig. S2b),"[1]; HSV-1, XQ2 0.31 μM",13697.8 and 18057.7 and 19972.6
same,IFNB1 mRNA (Fig. S2b),"[1]; HSV-1, XQ2 0.31 μM",103.029 and 97.656 and 104.314
same,IL6 mRNA (Fig. S2b),"[1]; HSV-1, XQ2 0.31 μM",94.9854 and 106.129 and 109.338
same,CXCL10 mRNA (Fig. S2b),"[1]; HSV-1, XQ2 0.63 μM",14561.5 and 17791.3 and 14971.8
same,IFNB1 mRNA (Fig. S2b),"[1]; HSV-1, XQ2 0.63 μM",91.2373 and 106.205 and 112.809
same,IL6 mRNA (Fig. S2b),"[1]; HSV-1, XQ2 0.63 μM",98.3879 and 100.916 and 99.3832
same,CXCL10 mRNA (Fig. S2b),"[1]; HSV-1, XQ2 1.25 μM",13878.7 and 14634.4 and 14561.7
same,IFNB1 mRNA (Fig. S2b),"[1]; HSV-1, XQ2 1.25 μM",97.5861 and 86.027 and 97.3512
same,IL6 mRNA (Fig. S2b),"[1]; HSV-1, XQ2 1.25 μM",83.7674 and 88.7511 and 90.6215
same,CXCL10 mRNA (Fig. S2b),"[1]; HSV-1, XQ2 2.5 μM",11116.4 and 12643.3 and 12467.1
same,IFNB1 mRNA (Fig. S2b),"[1]; HSV-1, XQ2 2.5 μM",73.1655 and 85.1476 and 97.1694
same,IL6 mRNA (Fig. S2b),"[1]; HSV-1, XQ2 2.5 μM",59.5539 and 58.6936 and 59.7795
same,CXCL10 mRNA (Fig. S2b),"[1]; HSV-1, XQ2 5 μM",4443.66 and 5989.75 and 4916.38
same,IFNB1 mRNA (Fig. S2b),"[1]; HSV-1, XQ2 5 μM",58.3528 and 60.5599 and 78.4822
same,IL6 mRNA (Fig. S2b),"[1]; HSV-1, XQ2 5 μM",37.2474 and 41.0154 and 36.4161
same,CXCL10 mRNA (Fig. S2b),"[1]; HSV-1, XQ2 10 μM",610.463 and 931.698 and 780.881
same,IFNB1 mRNA (Fig. S2b),"[1]; HSV-1, XQ2 10 μM",20.0242 and 25.5972 and 33.1577
same,CXCL10 mRNA (Fig. S2b),"[1]; Mock, XQ2 0.31 μM",0.6255 and 0.7855 and 0.8542
same,IFNB1 mRNA (Fig. S2b),"[1]; Mock, XQ2 0.31 μM",0.7527 and 0.6452 and 0.8722
same,IL6 mRNA (Fig. S2b),"[1]; Mock, XQ2 0.31 μM",0.9875 and 1.125 and 1.458
same,CXCL10 mRNA (Fig. S2b),"[1]; Mock, XQ2 0.63 μM",0.4588 and 0.432 and 0.4044
same,IFNB1 mRNA (Fig. S2b),"[1]; Mock, XQ2 0.63 μM",0.713 and 0.5919 and 0.8053
same,IL6 mRNA (Fig. S2b),"[1]; Mock, XQ2 0.63 μM",1.48 and 1.078 and 1.222
same,CXCL10 mRNA (Fig. S2b),"[1]; Mock, XQ2 1.25 μM",1.308 and 1.359 and 1.615
same,IFNB1 mRNA (Fig. S2b),"[1]; Mock, XQ2 1.25 μM",0.9026 and 1.107 and 1.382
same,CXCL10 mRNA (Fig. S2b),"[1]; Mock, XQ2 2.5 μM",3.137 and 2.991 and 2.833
same,IFNB1 mRNA (Fig. S2b),"[1]; Mock, XQ2 2.5 μM",1.426 and 1.751 and 1.799
same,IL6 mRNA (Fig. S2b),"[1]; Mock, XQ2 2.5 μM",2.387 and 2.459 and 3.439
same,CXCL10 mRNA (Fig. S2b),"[1]; Mock, XQ2 5 μM",1.923 and 2.134 and 2.246
same,IFNB1 mRNA (Fig. S2b),"[1]; Mock, XQ2 5 μM",1.17 and 1.093 and 1.0788
same,CXCL10 mRNA (Fig. S2b),"[1]; Mock, XQ2 10 μM",4.593 and 4.941 and 4.3739
same,IFNB1 mRNA (Fig. S2b),"[1]; Mock, XQ2 10 μM",1.523 and 2.285 and 2.284
same,IL6 mRNA (Fig. S2b),"[1]; Mock, XQ2 10 μM",4.656 and 4.111 and 3.925
same,"HSV-1-induced IFNB1, CXCL10, IL6 expression",[1]; THP1,"inhibited the expression level of IFNΒ1 and CXCL10, as well as IL6"
same,"IFNB1 mRNA, qPCR, Fig. 2b","[1]; THP1, HSV-1, 10 μM",17.701 and 20.2819 and 20.0106
